# Assays:
# [1] = test system: C57/B6 mice with streptozotocin (STZ)-induced diabetes; assay: Transplantation of encapsulated rat islets into STZ-induced diabetic mice, daily blood glucose monitoring; format: in vivo; details: daily blood glucose over 2 months, marginal mass of islets, intraperitoneal, n=6-7
# Protocol: Alginate with high gluronic acid content SLG20 (Novamatrix, FMC Polymer, Drammen, Norway) was dissolved in sterile 0.9% (w/v) NaCl to give an alginate solution of 1.5% (w/v). To prepare hybrid drug-islet capsule, 1.5% (w/v) alginate was mixed with curcumin (Sigma Aldrich) at 0.3-1.0 mg/ml or with dexamethasone (Sigma Aldrich) at 1-2 mg/ml and stirred for 3-4 days to ensure that the drug is homogenously dispersed. During this mixing period, curcumin-alginate mixture was wrapped in aluminium foil to avoid light exposure which might oxidize this drug. One day after islet isolation, islets were washed twice with Ca-free Krebs and mixed with the alginate suspension with or without dispersed drug at a pre-cross-linking islet density of approximately 750-1000 islets/ml. […]
# Male Sprague—Dawley rats, 200-250 g, also obtained from Charles River Laboratories, were used as islet donors. […] The mice were observed daily till after the final STZ injection when they are weighed and their blood glucose levels determined. Mice were confirmed diabetic if their non-fasted blood glucose level rose above 300 mg/dL for two consecutive daily readings. […]
# Xenogeneic transplants of encapsulated rat islets to diabetic mice recipients were performed to examine the reversibility of diabetes. […] Shortly thereafter, islet-containing capsules were sampled in quadruplicate, the total islets number was counted. […]
# [2] = test system: islet cells in retrieved capsules; assay: Insulin secretion from retrieved capsules; format: in vivo; details: 24 hours, FIG. 10
# Protocol: Sixty days after transplantation of islet-containing capsules, the mice from example 6 were sacrificed by CO2 asphyxiation. A lapratomy was performed to expose the abdominal cavity and capsules were retrieved by an abdominal lavage with HEPES buffer. The abdominal cavity was examined closely to identify remaining capsules, which if found were gently removed using atraumatic tweezers. The retrieved capsules were subsequently washed several times in HEPES buffer and imaged at 2× magnification using an EVOS brightfield microscope (AMG). Finally, capsules were transferred into a 1.5 ml Eppendorf tube, and frozen at −20° C. for future analysis. Insulin secretion was measured from the retrieved capsules for 24 hours.
# [3] = test system: RAW 264.7 macrophages; assay: Co-culture of macrophages and encapsulated islets: macrophage proliferation; format: cell-based; details: hybrid alginate capsules with 2 mg/ml dexamethasone or 1 mg/ml curcumin, 4 days co-culture
# Protocol: (§1) RAW 264.7 macrophages were cultured in RPMI-1640 medium supplemented with 10% FBS, 100 units/ml penicillin and 100 μg/ml streptomycin (Invitrogen). The cells were sub-cultured every 2-3 days. 0.2 million macrophages in 3 ml of fresh culture medium were seeded into each well of a six-well tissue-culture treated polystyrene plate and allowed to adhere to the plate surface over night. The culture medium was removed and encapsulated islets were added in 3 ml of fresh medium to each well with adherent macrophages. Co-culturing of encapsulated islets with macrophages was maintained for four days. Afterwards, supernatant samples were collected and frozen at −20° C. for future insulin analysis with an insulin ELISA kit (ALPCO diagnostics). Encapsulated islets were collected into new plates. Both encapsulated islets and remaining adherent macrophages were washed in HEPES buffer and subjected to live-dead fluorescent staining (Invitrogen) for viability assessment.
# (§2) An in vitro experiment was designed to test whether the presence of immune cells affects insulin secretion by islets. Hybrid alginate capsules containing islet cells and 2 mg/ml of dexamethasone or 1 mg/ml of curcumin were fabricated. Islet cells were encapsulated alone as a positive control. As a negative control, encapsulated islets were co-cultured with a macrophage cell line adherent to the plate's bottom. […]
# [4] = test system: encapsulated islets; format: cell-based; details: hybrid alginate capsules with 2 mg/ml dexamethasone or 1 mg/ml curcumin, 4 days co-culture, FIG. 5
# Protocol: as §1, §2
# [5] = test system: fibrosis on capsules; assay: Fibrosis formation on capsules retrieved 60 days after transplantation (observation, DNA fluorescent staining); format: in vivo, mice; details: FIG. 9
# Protocol: Sixty days after transplantation of islet-containing capsules, the mice from example 6 were sacrificed by CO2 asphyxiation. A lapratomy was performed to expose the abdominal cavity and capsules were retrieved by an abdominal lavage with HEPES buffer. The abdominal cavity was examined closely to identify remaining capsules, which if found were gently removed using atraumatic tweezers. The retrieved capsules were subsequently washed several times in HEPES buffer and imaged at 2× magnification using an EVOS brightfield microscope (AMG). Finally, capsules were transferred into a 1.5 ml Eppendorf tube, and frozen at −20° C. for future analysis.
# 50 μl of retrieved capsules (120-150 alginate capsules) were transferred to each well of a 24-well Millicell® cell culture insert (Millipore) using wide-orifice pipette tips (Fisher Scientific, Pittsburgh, Pa., USA). The capsules were incubated at 37° C. for 45 min in 800 μl of 0.001 mg/ml Hoersch 33342 dye (Invitrogen) prepared from stock solution by dilution with HEPES buffer. Afterwards, these capsules were washed four times with HEPES buffer. […] Finally, fluorescent signals from the stained capsules were obtained using a Tecan UV-VIS absorbance plate reader at with the excitation and emission wavelengths of 350 nm and 460 nm respectively.
# A rigorous quantification technique was developed to assess fibrosis on capsules via DNA fluorescent staining. […]
smiles,measurement,setting,value
COc1cc(/C=C/C(=O)CC(=O)/C=C/c2ccc(O)c(OC)c2)ccc1O [curcumin],glycemic control,[1],improved glycemic control
same,insulin secretion from retrieved capsules,[2],greatly improved insulin secretion
same,macrophages proliferation,[3],hindered macrophages proliferation
same,insulin secretion from encapsulated islets co-cultured with macrophages,[4],restored insulin secretion
same,fibrosis by DNA fluorescence of retrieved capsules,[5],reduced fibrosis with statistical significance

# Source: US10709667B2, “Hydrogel encapsulated cells and anti-inflammatory drugs” (Massachusetts Institute of Technology, priority 2011, dated 2020)
